Experimental data published in ChEMBL document CHEMBL5465560, “Selectivity Literature for EUbOPEN Chemogenomic Library” (2024).
Each block holds one molecule with its values, some of them ahead of it.

Key:
[1] = molecular target: Tyrosine-protein kinase JAK2 (Homo sapiens, UniProt O60674); assay: Selectivity interaction (Kinase panel (Z-LYTE Assay)) EUB0001632a JAK2; details: at 10 µM
[2] = molecular target: T1, cGMP-dependent protein kinase 1 (Homo sapiens) (UniProt Q13976); assay: Selectivity interaction (Kinase panel (Z-LYTE Assay)) EUB0001632a PRKG1; details: at 10 µM
T1 sequence (whole entry): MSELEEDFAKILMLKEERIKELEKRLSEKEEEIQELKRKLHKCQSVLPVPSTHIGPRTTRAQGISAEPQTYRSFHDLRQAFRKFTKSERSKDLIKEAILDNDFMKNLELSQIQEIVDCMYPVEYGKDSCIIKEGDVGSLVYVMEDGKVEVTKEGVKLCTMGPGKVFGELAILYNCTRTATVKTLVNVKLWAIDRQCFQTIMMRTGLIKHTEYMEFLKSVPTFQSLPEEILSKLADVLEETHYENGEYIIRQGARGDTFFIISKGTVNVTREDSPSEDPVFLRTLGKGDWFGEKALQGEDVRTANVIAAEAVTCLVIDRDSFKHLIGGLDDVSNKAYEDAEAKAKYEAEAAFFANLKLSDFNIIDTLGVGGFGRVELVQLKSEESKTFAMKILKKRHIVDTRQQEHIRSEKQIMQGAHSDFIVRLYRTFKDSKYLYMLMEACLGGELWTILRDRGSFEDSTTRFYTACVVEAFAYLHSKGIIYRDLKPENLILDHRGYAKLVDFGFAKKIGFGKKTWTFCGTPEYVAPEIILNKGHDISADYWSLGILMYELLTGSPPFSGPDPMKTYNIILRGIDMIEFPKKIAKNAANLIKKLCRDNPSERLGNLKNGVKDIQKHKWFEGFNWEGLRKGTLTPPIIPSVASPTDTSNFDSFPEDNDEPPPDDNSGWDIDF

[3] = molecular target: Serine/threonine-protein kinase MARK2 (Homo sapiens) (UniProt Q7KZI7); assay: Selectivity interaction (KinomeScan (DiscoverX)) EUB0000666a MARK2; details: at 10 µM
Serine/threonine-protein kinase MARK2 (Homo sapiens), sequence (Q7KZI7 whole entry): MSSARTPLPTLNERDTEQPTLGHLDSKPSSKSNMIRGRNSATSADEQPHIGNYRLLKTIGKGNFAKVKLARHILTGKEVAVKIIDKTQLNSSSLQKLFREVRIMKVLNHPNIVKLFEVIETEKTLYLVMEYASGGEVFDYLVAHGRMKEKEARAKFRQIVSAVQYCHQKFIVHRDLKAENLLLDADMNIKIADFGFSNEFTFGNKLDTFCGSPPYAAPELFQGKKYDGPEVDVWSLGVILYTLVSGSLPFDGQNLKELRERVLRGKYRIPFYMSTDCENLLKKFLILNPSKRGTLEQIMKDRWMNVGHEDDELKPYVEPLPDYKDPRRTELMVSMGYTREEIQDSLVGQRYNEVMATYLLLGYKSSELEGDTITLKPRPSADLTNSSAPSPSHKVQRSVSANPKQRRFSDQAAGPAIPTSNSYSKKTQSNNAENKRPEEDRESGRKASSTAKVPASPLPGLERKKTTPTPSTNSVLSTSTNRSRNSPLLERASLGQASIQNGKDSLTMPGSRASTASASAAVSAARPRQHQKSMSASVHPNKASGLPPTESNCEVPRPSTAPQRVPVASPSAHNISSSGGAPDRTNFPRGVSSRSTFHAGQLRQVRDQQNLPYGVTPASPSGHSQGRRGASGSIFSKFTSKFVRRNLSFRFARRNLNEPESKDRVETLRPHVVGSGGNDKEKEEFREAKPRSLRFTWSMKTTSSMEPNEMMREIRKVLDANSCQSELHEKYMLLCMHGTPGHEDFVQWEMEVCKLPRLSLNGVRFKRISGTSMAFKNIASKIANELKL

[4] = molecular target: T2, Aurora kinase A (Homo sapiens) (UniProt O14965); assay: Selectivity interaction (KinaseProfiler screening (Millipore)) EUB0000601a STK6; details: at 3 µM
T2 sequence (whole entry): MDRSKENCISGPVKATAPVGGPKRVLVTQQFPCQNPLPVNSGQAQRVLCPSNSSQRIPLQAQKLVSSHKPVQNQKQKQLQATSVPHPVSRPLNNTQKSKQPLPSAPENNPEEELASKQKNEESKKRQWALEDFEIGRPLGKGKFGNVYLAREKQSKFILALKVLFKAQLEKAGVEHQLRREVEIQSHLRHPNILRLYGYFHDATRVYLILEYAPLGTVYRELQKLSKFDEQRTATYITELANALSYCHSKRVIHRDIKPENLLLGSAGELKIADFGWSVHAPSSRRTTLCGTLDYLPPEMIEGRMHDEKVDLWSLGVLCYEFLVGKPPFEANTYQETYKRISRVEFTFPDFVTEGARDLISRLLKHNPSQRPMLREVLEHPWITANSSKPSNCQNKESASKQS

[5] = molecular target: T3, Phosphatidylinositol 3-kinase C2 domain-containing subunit gamma (Homo sapiens) (UniProt O75747); assay: Selectivity interaction (KinomeScan (DiscoverX)) EUB0000595a PIK3C2G; details: at 10 µM
T3 sequence (whole entry): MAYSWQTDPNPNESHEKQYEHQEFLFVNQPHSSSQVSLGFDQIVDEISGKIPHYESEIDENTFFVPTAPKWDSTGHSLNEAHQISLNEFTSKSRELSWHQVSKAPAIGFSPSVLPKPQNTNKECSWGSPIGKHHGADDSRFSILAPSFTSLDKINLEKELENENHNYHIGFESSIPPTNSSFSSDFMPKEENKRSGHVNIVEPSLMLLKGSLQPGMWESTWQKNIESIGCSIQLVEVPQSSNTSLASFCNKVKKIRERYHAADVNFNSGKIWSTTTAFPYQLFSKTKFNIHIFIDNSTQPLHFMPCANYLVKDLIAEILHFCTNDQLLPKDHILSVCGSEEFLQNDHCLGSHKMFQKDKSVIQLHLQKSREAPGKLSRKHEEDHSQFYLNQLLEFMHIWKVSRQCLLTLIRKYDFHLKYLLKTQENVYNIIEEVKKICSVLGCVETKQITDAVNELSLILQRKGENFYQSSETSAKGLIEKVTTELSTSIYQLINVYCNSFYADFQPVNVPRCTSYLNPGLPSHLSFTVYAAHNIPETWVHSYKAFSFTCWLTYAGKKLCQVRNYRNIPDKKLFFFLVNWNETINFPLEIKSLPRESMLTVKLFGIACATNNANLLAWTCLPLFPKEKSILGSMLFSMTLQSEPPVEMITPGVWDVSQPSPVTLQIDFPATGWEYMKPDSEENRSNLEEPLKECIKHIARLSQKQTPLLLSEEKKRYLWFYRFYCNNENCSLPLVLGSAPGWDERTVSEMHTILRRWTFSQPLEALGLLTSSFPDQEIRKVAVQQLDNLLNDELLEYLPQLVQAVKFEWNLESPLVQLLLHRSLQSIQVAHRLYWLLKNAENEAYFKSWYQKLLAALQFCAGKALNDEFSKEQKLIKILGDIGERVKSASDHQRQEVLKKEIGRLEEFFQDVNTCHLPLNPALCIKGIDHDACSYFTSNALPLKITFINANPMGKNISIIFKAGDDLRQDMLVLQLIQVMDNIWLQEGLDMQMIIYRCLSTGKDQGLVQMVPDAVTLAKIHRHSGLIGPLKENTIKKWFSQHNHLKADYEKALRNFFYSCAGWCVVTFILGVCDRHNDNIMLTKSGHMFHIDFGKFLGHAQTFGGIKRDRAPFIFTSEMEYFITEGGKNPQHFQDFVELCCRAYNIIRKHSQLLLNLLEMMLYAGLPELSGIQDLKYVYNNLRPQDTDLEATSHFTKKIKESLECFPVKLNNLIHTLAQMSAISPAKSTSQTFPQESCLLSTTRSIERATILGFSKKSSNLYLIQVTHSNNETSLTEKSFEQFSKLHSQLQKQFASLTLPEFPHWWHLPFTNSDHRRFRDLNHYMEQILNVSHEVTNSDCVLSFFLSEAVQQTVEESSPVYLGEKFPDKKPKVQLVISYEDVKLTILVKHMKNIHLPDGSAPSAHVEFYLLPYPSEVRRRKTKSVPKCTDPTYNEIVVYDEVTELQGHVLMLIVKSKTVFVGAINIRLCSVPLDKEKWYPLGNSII

[6] = molecular target: Dual specificity tyrosine-phosphorylation-regulated kinase 1A (Homo sapiens, UniProt Q13627); assay: Selectivity interaction (KinomeScan (DiscoverX)) EUB0000045b DYRK1A
[7] = molecular target: Protein-tyrosine kinase 6 (Homo sapiens, UniProt Q13882); assay: Selectivity interaction (KinomeScan (DiscoverX)) EUB0001079a PTK6; details: at 1 µM
Protein-tyrosine kinase 6, sequence (Q13882 whole entry, looked up): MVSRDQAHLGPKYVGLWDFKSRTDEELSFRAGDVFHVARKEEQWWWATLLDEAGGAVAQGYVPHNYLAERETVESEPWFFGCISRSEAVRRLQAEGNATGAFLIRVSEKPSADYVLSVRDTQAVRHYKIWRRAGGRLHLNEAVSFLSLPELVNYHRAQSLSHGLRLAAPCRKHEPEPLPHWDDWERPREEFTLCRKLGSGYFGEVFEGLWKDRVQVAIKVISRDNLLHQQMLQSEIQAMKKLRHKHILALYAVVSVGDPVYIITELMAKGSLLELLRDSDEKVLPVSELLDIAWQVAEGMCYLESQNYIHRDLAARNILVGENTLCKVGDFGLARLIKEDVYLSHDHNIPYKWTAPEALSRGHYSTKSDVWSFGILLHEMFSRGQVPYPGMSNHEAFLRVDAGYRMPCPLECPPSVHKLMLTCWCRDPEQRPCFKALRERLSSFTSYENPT

[8] = molecular target: Calcium/calmodulin-dependent protein kinase type II subunit beta (Homo sapiens) (UniProt Q13554); assay: Selectivity interaction (KinomeScan (DiscoverX)) EUB0000092b CAMK2B; details: at 10 µM
Calcium/calmodulin-dependent protein kinase type II subunit beta (Homo sapiens), sequence (Q13554 whole entry): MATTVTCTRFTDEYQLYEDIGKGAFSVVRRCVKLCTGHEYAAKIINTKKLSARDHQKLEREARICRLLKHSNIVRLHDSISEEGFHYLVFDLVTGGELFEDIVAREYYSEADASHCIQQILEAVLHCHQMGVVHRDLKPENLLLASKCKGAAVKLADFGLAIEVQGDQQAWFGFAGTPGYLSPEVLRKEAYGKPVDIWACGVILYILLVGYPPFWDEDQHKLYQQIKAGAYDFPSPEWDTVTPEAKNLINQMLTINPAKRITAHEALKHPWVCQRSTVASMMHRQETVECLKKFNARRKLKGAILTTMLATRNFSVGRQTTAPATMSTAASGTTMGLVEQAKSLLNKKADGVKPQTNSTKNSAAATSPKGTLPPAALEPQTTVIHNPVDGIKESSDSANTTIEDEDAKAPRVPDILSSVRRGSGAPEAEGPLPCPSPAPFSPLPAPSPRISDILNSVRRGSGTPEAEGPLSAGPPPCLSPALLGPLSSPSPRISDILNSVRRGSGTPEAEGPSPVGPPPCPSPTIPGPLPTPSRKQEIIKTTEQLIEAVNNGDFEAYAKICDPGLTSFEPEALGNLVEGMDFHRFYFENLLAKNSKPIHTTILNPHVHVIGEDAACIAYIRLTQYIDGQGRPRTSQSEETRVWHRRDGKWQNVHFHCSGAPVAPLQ

Tyrosine-protein kinase JAK2, sequence (O60674 whole entry): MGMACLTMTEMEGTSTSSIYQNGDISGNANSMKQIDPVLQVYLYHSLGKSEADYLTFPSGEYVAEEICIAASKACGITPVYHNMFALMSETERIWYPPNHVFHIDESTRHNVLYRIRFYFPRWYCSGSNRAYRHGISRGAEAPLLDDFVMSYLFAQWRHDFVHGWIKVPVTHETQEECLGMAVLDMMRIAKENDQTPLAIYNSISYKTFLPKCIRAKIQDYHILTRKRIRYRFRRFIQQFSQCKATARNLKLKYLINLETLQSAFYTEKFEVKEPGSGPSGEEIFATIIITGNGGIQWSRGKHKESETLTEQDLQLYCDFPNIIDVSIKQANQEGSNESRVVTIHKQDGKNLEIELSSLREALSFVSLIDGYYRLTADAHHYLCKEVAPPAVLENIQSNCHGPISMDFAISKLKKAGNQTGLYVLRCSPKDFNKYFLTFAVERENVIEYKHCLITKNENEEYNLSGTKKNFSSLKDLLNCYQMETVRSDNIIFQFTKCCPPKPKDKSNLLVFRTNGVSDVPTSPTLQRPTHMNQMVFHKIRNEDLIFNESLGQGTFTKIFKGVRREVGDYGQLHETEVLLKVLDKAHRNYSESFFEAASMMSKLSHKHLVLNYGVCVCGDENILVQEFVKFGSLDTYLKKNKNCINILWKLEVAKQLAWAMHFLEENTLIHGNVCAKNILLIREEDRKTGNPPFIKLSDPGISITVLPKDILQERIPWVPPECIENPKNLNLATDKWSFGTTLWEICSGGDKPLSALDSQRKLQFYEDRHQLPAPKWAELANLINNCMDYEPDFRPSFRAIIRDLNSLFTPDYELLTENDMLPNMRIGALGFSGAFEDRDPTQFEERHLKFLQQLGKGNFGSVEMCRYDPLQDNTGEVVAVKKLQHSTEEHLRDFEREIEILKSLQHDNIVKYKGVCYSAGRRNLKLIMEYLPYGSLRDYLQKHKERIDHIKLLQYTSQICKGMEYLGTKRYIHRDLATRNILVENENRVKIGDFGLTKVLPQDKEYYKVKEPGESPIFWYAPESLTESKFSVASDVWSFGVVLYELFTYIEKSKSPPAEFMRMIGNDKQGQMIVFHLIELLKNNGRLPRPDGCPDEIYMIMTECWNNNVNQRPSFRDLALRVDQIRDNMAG

% of control [1]: 3.68% | % of control [2]: -8.04%
SMILES: Cn1cc(-n2cnc3c(NCc4nc5cc(Cl)c(Cl)cc5[nH]4)nc(N4CCOCC4)nc32)cn1

SMILES: O=C(NOC[C@H](O)CO)c1ccc(F)c(F)c1Nc1ccc(I)cc1F
% of control [3]: 100%

% of inhibition [4]: 76%
SMILES: CCc1cc(Nc2nccc(-c3c(-c4ccc(OC)c(C(=O)Nc5c(F)cccc5F)c4)nc4ccccn34)n2)c(OC)cc1N1CCC(N2CCN(S(C)(=O)=O)CC2)CC1

SMILES: COCC(=O)NC/C=C/c1ccc2ncnc(Nc3ccc(Oc4ccc(C)nc4)c(C)c3)c2c1 [CP-724714]
% of control [5]: 24%

SMILES: C=CC(=O)Nc1cc(-n2c(=O)ccc3cnc4ccc(-c5ccc(NS(C)(=O)=O)cc5)cc4c32)ccc1C
% of control ([6]; at 1 µM): 100% | % of control ([6]; at 10 µM): 62%

SMILES: Nc1cnc(N2CCc3cc(S(=O)(=O)Nc4c(F)cc(Cl)cc4F)cc(N4CCCC4=O)c32)nc1 [TP-020n]
% of control [7]: 100%

SMILES: CCC(=O)N1CCN(c2ccc(-n3c(=O)ccc4cnc5ccc(-c6cnc7ccccc7c6)cc5c43)cc2C(F)(F)F)CC1
% of control [8]: 100%
